Reference: ChEMBL document CHEMBL3046477, “Carbamate derivatives of felbamate as potential anticonvulsant agents” (Med Chem Res, 2010)
Active and inactive are the calls of the source. No cut-off for these calls is given here.

Experiments:
Mus musculus [1] = test: Anticonvulsant activity in ip dosed Mus musculus Swiss Webster (mouse) assessed as protection against maximal electroshock-induced seizure at 0.5 hr; assay type: functional
Mus musculus [2] = test: Anticonvulsant activity in ip dosed Mus musculus Swiss Webster (mouse) assessed as protection against subcutaneous pentylenetetrazole-induced seizure at 0.5 hr; assay type: functional
Mus musculus [3] = test: Anticonvulsant activity in Mus musculus (mouse) assessed as protection against subcutaneous pentylenetetrazole-induced seizure up to 300 mg/kg, ip; assay type: functional, organism-based; design: dose 300 mg/kg
Mus musculus [4] = test: Anticonvulsant activity in Mus musculus (mouse) assessed as protection against maximal electroshock-induced seizure at 300 mg/kg, ip; assay type: functional, organism-based; design: dose 300 mg/kg
Mus musculus [5] = test: Anticonvulsant activity in ip dosed Mus musculus (mouse) assessed as protection against maximal electroshock-induced seizures; assay type: functional
Mus musculus [6] = test: Anticonvulsant activity in ip dosed Mus musculus (mouse) assessed as protection against subcutaneous pentylenetetrazole-induced seizure; assay type: functional
Rattus norvegicus [7] = test: Anticonvulsant activity in po dosed Rattus norvegicus (rat) assessed as protection against maximal electroshock-induced seizure; assay type: functional
Rattus norvegicus [8] = test: Anticonvulsant activity in po dosed Rattus norvegicus (rat) assessed as protection against subcutaneous pentylenetetrazole-induced seizure; assay type: functional
[9] = Neurotoxicity in po dosed Rattus norvegicus (rat) assessed as minimal motor impairment by rotorod test; assay type: toxicity, organism-based; conditions: in vivo
Rattus norvegicus [10] = test: Anticonvulsant activity Rattus norvegicus (rat) assessed as reduction of hippocampus kindling at 100 mg/kg, ip; assay type: functional, organism-based; design: dose 100 mg/kg
Mus musculus [11] = test: Anticonvulsant activity in po dosed Mus musculus Swiss Webster (mouse) assessed as protection against maximal electroshock-induced seizure at 0.5 hr; assay type: functional
Mus musculus [12] = test: Anticonvulsant activity in Mus musculus Swiss Webster (mouse) assessed as protection against subcutaneous pentylenetetrazole-induced seizure up to 300 mg/kg, ip at 0.5 hr; assay type: functional, organism-based; design: dose 300 mg/kg
Rattus norvegicus [13] = test: Neurotoxicity in Rattus norvegicus (rat) assessed as minimal motor impairment at 20 mg/kg, ip at 5 min by rotorod test; assay type: toxicity, organism-based; design: dose 20 mg/kg, route intraperitoneal; conditions: in vivo
Rattus norvegicus [14] = test: Anticonvulsant activity in Rattus norvegicus (rat) assessed as protection against maximal electroshock-induced seizure at 30 mg/kg, po; assay type: functional, organism-based; design: dose 30 mg/kg
Rattus norvegicus [15] = test: Neurotoxicity in Rattus norvegicus (rat) assessed as minimal motor impairment at 20 mg/kg, ip at 10 min by rotorod test; assay type: toxicity, organism-based; design: dose 20 mg/kg, route intraperitoneal; conditions: in vivo
Rattus norvegicus [16] = test: Anticonvulsant activity in Rattus norvegicus (rat) assessed as protection against maximal electroshock-induced seizure at 20 mg/kg, ip at 30 min; assay type: functional, organism-based; design: dose 20 mg/kg
Rattus norvegicus [17] = test: Neurotoxicity in Rattus norvegicus (rat) assessed as minimal motor impairment at 20 mg/kg, ip at 30 min by rotorod test; assay type: toxicity, organism-based; design: dose 20 mg/kg, route intraperitoneal; conditions: in vivo, 0.5 h
Rattus norvegicus [18] = test: Protective index, ratio of TD50 for po dosed Rattus norvegicus (rat) to ED50 for po dosed rat by subcutaneous pentylenetetrazole seizure test; assay type: functional
Rattus norvegicus [19] = test: Anticonvulsant activity in Rattus norvegicus (rat) assessed as protection against maximal electroshock-induced seizure at 20 mg/kg, ip at 15 min; assay type: functional, organism-based; design: dose 20 mg/kg
Rattus norvegicus [20] = test: Neurotoxicity in Rattus norvegicus (rat) assessed as minimal motor impairment at 20 mg/kg, ip at 15 min by rotorod test; assay type: toxicity, organism-based; design: dose 20 mg/kg, route intraperitoneal; conditions: in vivo, 0.25 h
Mus musculus [21] = test: Anticonvulsant activity in Mus musculus (mouse) assessed as protection against maximal electroshock-induced seizure up to 300 mg/kg, ip; assay type: functional, organism-based; design: dose 300 mg/kg
Rattus norvegicus [22] = test: Protective index, ratio of TD50 for po dosed Rattus norvegicus (rat) to ED50 for po dosed rat by maximal electroshock seizures test; assay type: functional
Rattus norvegicus [23] = test: Neurotoxicity in Rattus norvegicus (rat) assessed as minimal motor impairment at 20 mg/kg, ip at 60 min by rotorod test; assay type: toxicity, organism-based; design: dose 20 mg/kg, route intraperitoneal; conditions: in vivo, 1 h
[24] = Neurotoxicity in ip dosed Mus musculus (mouse) assessed as minimal motor impairment by rotorod test; assay type: toxicity, organism-based; conditions: in vivo
Rattus norvegicus [25] = test: Neurotoxicity in Rattus norvegicus (rat) at 300 mg/kg, ip; assay type: toxicity, organism-based; design: dose 300 mg/kg, route intraperitoneal; conditions: in vivo
[26] = Neurotoxicity in ip dosed Rattus norvegicus (rat) assessed as minimal motor impairment at 0.5 hr by rotorod test; assay type: toxicity, organism-based; conditions: in vivo
Mus musculus [27] = test: Anticonvulsant activity in Mus musculus (mouse) assessed as protection against maximal electroshock-induced seizure at 100 mg/kg, ip; assay type: functional, organism-based; design: dose 100 mg/kg
Mus musculus [28] = test: Anticonvulsant activity in Mus musculus (mouse) assessed as protection against subcutaneous pentylenetetrazole-induced seizure at 300 mg/kg, ip; assay type: functional, organism-based; design: dose 300 mg/kg
Rattus norvegicus [29] = test: Anticonvulsant activity in ip dosed Rattus norvegicus (rat) assessed as protection against maximal electroshock-induced seizure; assay type: functional
Mus musculus [30] = test: Anticonvulsant activity in Mus musculus Swiss Webster (mouse) assessed as protection against maximal electroshock-induced seizure at 300 mg/kg, ip at 0.5 hr; assay type: functional, organism-based; design: dose 300 mg/kg
Mus musculus [31] = test: Anticonvulsant activity in po dosed Mus musculus (mouse) assessed as protection against maximal electroshock-induced seizure; assay type: functional
Rattus norvegicus [32] = test: Anticonvulsant activity in Rattus norvegicus (rat) assessed as protection against maximal electroshock-induced seizure at 20 mg/kg, ip at 10 min; assay type: functional, organism-based; design: dose 20 mg/kg
Rattus norvegicus [33] = test: Anticonvulsant activity in Rattus norvegicus (rat) assessed as protection against maximal electroshock-induced seizure at 20 mg/kg, ip at 60 min; assay type: functional, organism-based; design: dose 20 mg/kg

NC(=O)OCc1ccccc1 [BENZYL CARBAMATE]
ED50 (Mus musculus [1]): 30.6 mg/kg
ED50 (Mus musculus [2]): 80.2 mg/kg

O=C(N[C@@H](CO)Cc1ccccc1)OCc1ccccc1
Activity (Mus musculus [3]): inactive
ED50 (Mus musculus [1]): 14.9 mg/kg
Activity (Mus musculus [4]): Active
Anticonvulsant activity (Mus musculus [2]): Active

NC(=O)OCC(COC(N)=O)c1ccccc1 [FELBAMATE]
ED50 (Mus musculus [5]): 35.5 mg/kg
ED50 (Mus musculus [6]): 126 mg/kg
ED50 (Mus musculus [1]): 35 mg/kg
ED50 (Mus musculus [2]): 548 mg/kg
ED50 (Rattus norvegicus [7]): 25.3 mg/kg
ED50 (Rattus norvegicus [8]): > 250 mg/kg
TD50 [9]: > 500 mg/kg
Activity (Rattus norvegicus [10]): inactive
ED50 (Mus musculus [11]): 52 mg/kg

CNC(=O)OCc1ccccc1 [BENZYL N-METHYLCARBAMATE]
Activity (Mus musculus [12]): inactive
ED50 (Mus musculus [1]): 40.5 mg/kg

C[C@@H](CO)NC(=O)OCc1ccccc1
Activity (Mus musculus [3]): inactive
Activity (Rattus norvegicus [13]): Non-toxic
Activity (Rattus norvegicus [14]): Active
Activity (Rattus norvegicus [15]): Non-toxic
Activity (Rattus norvegicus [16]): inactive
ED50 (Mus musculus [1]): 54.7 mg/kg
Activity (Rattus norvegicus [17]): Non-toxic
Ratio TD50/ED50 (Rattus norvegicus [18]): 2.88
ED50 (Mus musculus [2]): 258 mg/kg
ED50 (Rattus norvegicus [7]): 67.6 mg/kg
ED50 (Rattus norvegicus [8]): > 125 mg/kg
Activity (Rattus norvegicus [19]): inactive
Activity (Rattus norvegicus [20]): Non-toxic
TD50 [9]: > 360 mg/kg
Activity (Mus musculus [21]): inactive
Ratio TD50/ED50 (Rattus norvegicus [22]): >5.3
Activity (Rattus norvegicus [23]): Non-toxic

CCCC(C)(COC(N)=O)COC(N)=O [MEPROBAMATE]
ED50 (Mus musculus [1]): 127 mg/kg
ED50 (Mus musculus [2]): 66 mg/kg
ED50 (Mus musculus [11]): 165 mg/kg

CC[C@@H](CO)NC(=O)OCc1ccccc1
Activity (Mus musculus [3]): inactive
ED50 (Mus musculus [1]): 123 mg/kg
Activity (Mus musculus [4]): Active
ED50 (Mus musculus [2]): 111 mg/kg

CCC(COC(N)=O)c1ccccc1 (racemic)
TD50 [24]: 114 mg/kg
ED50 (Mus musculus [5]): 72.7 mg/kg
Activity (Rattus norvegicus [14]): Active
Activity (Rattus norvegicus [25]): Toxic
TD50 at 0.5 h [26]: 50.5 mg/kg
ED50 (Mus musculus [6]): 87.6 mg/kg
ED50 (Mus musculus [1]): 71.7 mg/kg
Activity (Mus musculus [27]): Active
Activity (Mus musculus [28]): Active
Ratio TD50/ED50 (Rattus norvegicus [18]): 8
ED50 (Mus musculus [2]): 124 mg/kg
ED50 (Rattus norvegicus [7]): 21 mg/kg
ED50 (Rattus norvegicus [8]): > 40 mg/kg
ED50 (Rattus norvegicus [29]): 16.1 mg/kg
TD50 [9]: > 320 mg/kg
Ratio TD50/ED50 (Rattus norvegicus [22]): >15.3
Activity (Rattus norvegicus [10]): inactive

O=C(N[C@H](CO)Cc1ccccc1)OCc1ccccc1
Activity (Mus musculus [3]): inactive
ED50 (Mus musculus [1]): 33.5 mg/kg
Activity (Mus musculus [4]): Active
Activity (Mus musculus [2]): Active

O=C(NCc1ccccc1)OCc1ccccc1 [BENZYL BENZYLCARBAMATE]
Activity (Mus musculus [3]): inactive
ED50 (Mus musculus [1]): 170 mg/kg
Activity (Mus musculus [4]): Active
ED50 (Mus musculus [2]): 115 mg/kg

NC(=O)Oc1ccccc1 [CARBAMIC ACID PHENYL ESTER]
Activity (Mus musculus [30]): Active
ED50 (Mus musculus [2]): 101 mg/kg

CC[C@H](CO)NC(=O)OCc1ccccc1
Activity (Mus musculus [3]): inactive
ED50 (Mus musculus [1]): 80.5 mg/kg
Activity (Mus musculus [4]): Active
ED50 (Mus musculus [2]): 144 mg/kg

NC(=O)OCC(CO)c1ccccc1 (stereo unspecified)
ED50 (Mus musculus [31]): 154 mg/kg

NC(=O)OCCc1ccccc1 [PHENYLETHYL CARBAMATE]
Activity (Mus musculus [12]): inactive
ED50 (Mus musculus [1]): 17.7 mg/kg

CCCC(CO)NC(=O)OCc1ccccc1 (racemic)
ED50 (Mus musculus [1]): 51.8 mg/kg
Activity (Mus musculus [4]): Active
Activity (Mus musculus [28]): Active
ED50 (Mus musculus [2]): 281 mg/kg

O=C(NCCO)OCc1ccccc1
Activity (Mus musculus [3]): inactive
ED50 (Mus musculus [1]): 25.2 mg/kg
Activity (Mus musculus [4]): Active
ED50 (Mus musculus [2]): 170 mg/kg

C[C@H](CO)NC(=O)OCc1ccccc1
Activity (Mus musculus [3]): inactive
Activity (Rattus norvegicus [13]): Non-toxic
Activity (Rattus norvegicus [25]): Toxic
Activity (Rattus norvegicus [15]): Non-toxic
ED50 (Mus musculus [1]): 60.1 mg/kg
Activity (Rattus norvegicus [32]): inactive
Activity (Rattus norvegicus [17]): Non-toxic
Ratio TD50/ED50 (Rattus norvegicus [18]): 2
ED50 (Mus musculus [2]): 226 mg/kg
ED50 (Rattus norvegicus [7]): 23.9 mg/kg
ED50 (Rattus norvegicus [8]): > 250 mg/kg
Activity (Rattus norvegicus [33]): inactive
Activity (Rattus norvegicus [20]): Non-toxic
TD50 [9]: > 500 mg/kg
Activity (Mus musculus [21]): inactive
Ratio TD50/ED50 (Rattus norvegicus [22]): >21
Activity (Rattus norvegicus [23]): Non-toxic
Activity (Rattus norvegicus [10]): inactive
